# Data as given in patent publication US20230067929A1, “HETEROCYCLIC DERIVATIVES, PHARMACEUTICAL COMPOSITIONS AND THEIR USE IN THE TREATMENT, AMELIORATION OR PREVENTION OF CANCER” (Tolremo Therapeutics AG, priority 2018, published 2023).
# Test system: A375 cells
# Assay: A375 cell immunofluorescence assay (with 1 μM S1152 and 0.5 μM S1008), EC50
# Format: cell-based
# Conditions: 1 μM S1152 + 0.5 μM S1008, one day, ratio FL2/FL3 staining (sc-365823 antibody)
# Procedure: One thousand four hundred A375 cells were seeded in each well of a 384 well microplate. One day later they were treated with 1 μM S1152 (Selleckchem) in dimethyl sulfoxide, 0.5 μM S1008 (Selleckchem) and dose ranges of invention compounds for one day in Dulbecco's Modified Eagle's Medium supplemented with 10% fetal calf serum and 2 mM (2S)-2-amino-4-carbamoylbutanoic acid. Wells were incubated with 4% polyoxymethylene (Sigma Aldrich 158127) at ambient temperature. After ten minutes, polyoxymethylene was replaced with phosphate-buffered saline. After one minute phosphate-buffered saline was replaced with 0.2% polyethylene glycol octylphenyl ether in phosphate-buffered saline. After ten minutes at ambient temperature 0.2% polyethylene glycol octylphenyl ether in phosphate-buffered saline was replaced with 1% aminoethanoic acid in phosphate-buffered saline. […] After one hour at 37° C., the solution was replaced with phosphate-buffered saline twice. Phosphate-buffered saline was replaced with 2 μg/ml A-11029 (Invitrogen) in 0.05% polyoxyethylene (20) sorbitan monolaurate in phosphate-buffered saline. […] After one hour at ambient temperature in the dark, signal in wells was measured with a Acumen Cellista. 3,8-Diamino-5-[3-(diethylmethylammonio)propyl]-6-phenylphenanthridinium diiodide-positive objects were defined in FL3 (565-600 nm) with a perimeter between 50-800 μm and a total intensity of 10000-1000000 FLU. Signal in FL2 (500-530 nm) was measured in defined objects. A normalized ratio of total ln FL2 over total ln FL3 staining was log transformed. A non-linear regression (variable slope, 4 parameters) was used to calculate EC50 values using GraphPad Prism (Version 7.0d).
row,EC50,SMILES
1,> 10 µM,CCC(=O)N1CCCC(c2nc(Cl)cc(Nc3cccc(F)c3)n2)C1 (stereo not drawn)
2,> 10 µM,CCC(=O)N1CCCC(c2nc(Nc3cccc(F)c3)cc(-c3cnc(N)nc3)n2)C1 (stereo not drawn)
3,1 to 10 µM,CCC(=O)N1CCCC(c2nc(Nc3ccccc3F)cc(-c3cccnc3)n2)C1 (stereo not drawn)
4,> 10 µM,CCC(=O)N1CCCC(c2nc(Nc3cccc(F)c3)cc(-c3cnc(NC)nc3)n2)C1 (stereo not drawn)
5,1 to 10 µM,CCC(=O)N1CCCC(c2nc(Nc3cccc(OC)c3)cc(-c3cccnc3)n2)C1 (stereo not drawn)
6,> 10 µM,CCC(=O)N1CCC(c2nc(Nc3cccc(F)c3)cc(-c3cccnc3)n2)C1 (stereo not drawn)
7,> 10 µM,CCC(=O)N1CCCC(c2nc(C)cc(Nc3cccc(F)c3)n2)C1 (stereo not drawn)
8,> 10 µM,CCC(=O)N1CCCC(c2nc(Nc3cccc(F)c3)cc(C3=CCOCC3)n2)C1 (stereo not drawn)
9,> 10 µM,CCC(=O)N1CCCC(c2nc(Nc3cccc(F)c3)cc(-c3cc[nH]n3)n2)C1 (stereo not drawn)
10,> 10 µM,CCC(=O)N1CCCC(c2nc(Nc3cccc(F)c3)cc(C3=CCCCC3)n2)C1 (stereo not drawn)
11,< 1 µM,COc1cncc(-c2cc(Nc3cncc(C)c3)nc([C@@H]3CC[C@H](C)N(C(C)=O)C3)n2)c1
12,1 to 10 µM,CCC(=O)N1CCCC(c2nc(Nc3cccc(Cl)c3)cc(-c3cccnc3)n2)C1 (stereo not drawn)
13,1 to 10 µM,CCC(=O)N1CCCC(c2nc(Nc3ccccc3)cc(-c3cccnc3)n2)C1 (stereo not drawn)
14,> 10 µM,CCC(=O)N1CCCC(c2nc(Nc3ccc(O)nc3)cc(-c3cccnc3)n2)C1 (stereo not drawn)
15,1 to 10 µM,CCC(=O)N1CCCC(c2nc(Nc3ccccc3Cl)cc(-c3cccnc3)n2)C1 (stereo not drawn)
16,1 to 10 µM,CCC(=O)N1CCCC(c2nc(Nc3cc(F)cc(F)c3)cc(-c3cccnc3)n2)C1 (stereo not drawn)
17,1 to 10 µM,CCC(=O)N1CCCC(c2nc(Nc3cc(OC)cc(OC)c3)cc(-c3cccnc3)n2)C1 (stereo not drawn)
18,1 to 10 µM,COC(=O)N1CCCC(c2nc(Nc3cccc(F)c3)cc(-c3cccnc3)n2)C1 (stereo not drawn)
19,> 10 µM,Fc1cccc(Nc2cc(-c3cccnc3)nc(C3CCCNC3)n2)c1 (stereo not drawn)
20,< 1 µM,CC(=O)N1CCCC(c2nc(Nc3cccc(F)c3)cc(-c3cccnc3)n2)C1 (stereo not drawn)
21,> 10 µM,O=C(N1CCCC(c2nc(Nc3cccc(F)c3)cc(-c3cccnc3)n2)C1)C(F)(F)F (stereo not drawn)
22,1 to 10 µM,CC(=O)N1CCCC(c2nc(Nc3cccc(F)c3)cc(-c3ccccc3)n2)C1 (stereo not drawn)
23,< 1 µM,COc1cncc(-c2cc(Nc3cccc(F)c3)nc(C3CCCN(C(C)=O)C3)n2)c1 (stereo not drawn)

row,EC50,SMILES
1,< 1 µM,CC(=O)N1CCCC(c2nc(Nc3cccc(F)c3)cc(-c3cncc(C)c3)n2)C1 (stereo not drawn)
2,< 1 µM,CC(=O)N1CCCC(c2nc(Nc3cccc(F)c3)cc(-c3cncc(C(F)F)c3)n2)C1 (stereo not drawn)
3,1 to 10 µM,O=C(C1CC1)N1CCCC(c2nc(Nc3cccc(F)c3)cc(-c3cccnc3)n2)C1 (stereo not drawn)
4,> 10 µM,CC(C)C(=O)N1CCCC(c2nc(Nc3cccc(F)c3)cc(-c3cccnc3)n2)C1 (stereo not drawn)
5,< 1 µM,[2H]C([2H])([2H])C(=O)N1CCCC(c2nc(Nc3cccc(F)c3)cc(-c3cccnc3)n2)C1 (stereo not drawn)
6,> 10 µM,O=C(CC(F)(F)F)N1CCCC(c2nc(Nc3cccc(F)c3)cc(-c3cccnc3)n2)C1 (stereo not drawn)
7,> 10 µM,CC(F)(F)C(=O)N1CCCC(c2nc(Nc3cccc(F)c3)cc(-c3cccnc3)n2)C1 (stereo not drawn)
8,> 10 µM,O=C(C(F)F)N1CCCC(c2nc(Nc3cccc(F)c3)cc(-c3cccnc3)n2)C1 (stereo not drawn)
9,> 10 µM,O=CN1CCCC(c2nc(Nc3cccc(F)c3)cc(-c3cccnc3)n2)C1 (stereo not drawn)
10,> 10 µM,COCCOCCOCC(=O)N1CCCC(c2nc(Nc3cccc(F)c3)cc(-c3cccnc3)n2)C1 (stereo not drawn)
11,> 10 µM,CCC(=O)N1CCCC(c2nc(Nc3cccc(F)c3)cc(NC3CC3)n2)C1 (stereo not drawn)
12,> 10 µM,CCC(=O)N1CCCC(c2nc(Nc3cccc(F)c3)cc(Nc3cccc(F)c3)n2)C1 (stereo not drawn)
13,1 to 10 µM,CCC(=O)N1CCCC(c2nc(Nc3cccc(F)c3)cc(Nc3ncccn3)n2)C1 (stereo not drawn)
14,> 10 µM,CCC(=O)N1CCCC(c2nc(Nc3cccc(F)c3)cc(NC3CCC3)n2)C1 (stereo not drawn)
15,> 10 µM,CCC(=O)N1CCCC(c2nc(Nc3cccc(F)c3)cc(Nc3cnccn3)n2)C1 (stereo not drawn)
16,> 10 µM,CCC(=O)N1CCCC(c2nc(Nc3cccc(F)c3)cc(NC3CCCCC3)n2)C1 (stereo not drawn)
17,> 10 µM,CCC(=O)N1CCCC(c2nc(Nc3cccc(F)c3)cc(NC3CCOC3)n2)C1 (stereo not drawn)
18,< 1 µM,CC(=O)N1CCCC(c2nc(Nc3cccc(F)c3)cc(Nc3ncccn3)n2)C1 (stereo not drawn)
19,1 to 10 µM,CC(=O)N1CCCC(c2nc(Nc3cccc(F)c3)cc(Nc3ccccn3)n2)C1 (stereo not drawn)
20,> 10 µM,CC(=O)N1CCCC(c2nc(Nc3ccncc3)cc(Nc3cccc(F)c3)n2)C1 (stereo not drawn)
21,> 10 µM,CC(=O)N1CCCC(c2nc(Nc3cccc(F)c3)cc(NC3CCOCC3)n2)C1 (stereo not drawn)
22,1 to 10 µM,CC(=O)N1CCCC(c2nc(Nc3cccc(F)c3)cc(NC3CCCOC3)n2)C1 (stereo not drawn)
23,1 to 10 µM,CC(=O)N1CCCC(c2nc(Nc3cncnc3)cc(Nc3cccc(F)c3)n2)C1 (stereo not drawn)

row,EC50,SMILES
1,> 10 µM,CC(=O)N1CCCC(Nc2cc(Nc3cccc(F)c3)nc(C3CCCN(C(C)=O)C3)n2)C1 (stereo not drawn)
2,1 to 10 µM,CC(=O)N1CCCC(c2nc(Nc3cccnc3)cc(Nc3cccc(F)c3)n2)C1 (stereo not drawn)
3,< 1 µM,CC(=O)N1C[C@H](c2nc(Nc3cncc(C)c3)cc(Nc3ncccn3)n2)CC[C@@H]1C
4,> 10 µM,CCC(=O)N1CCCC(c2nc(NCc3ccccc3)cc(Nc3cccc(F)c3)n2)C1 (stereo not drawn)
5,> 10 µM,CCC(=O)N1CCCC(c2nc(NCCN(C)C)cc(Nc3cccc(F)c3)n2)C1 (stereo not drawn)
6,> 10 µM,CC(C)CN1CCCC(c2nc(Nc3cccc(F)c3)cc(-c3cccnc3)n2)C1 (stereo not drawn)
7,> 10 µM,CCN1CCCC(c2nc(Nc3cccc(F)c3)cc(-c3cccnc3)n2)C1 (stereo not drawn)
8,> 10 µM,CN1CCCC(c2nc(Nc3cccc(F)c3)cc(-c3cccnc3)n2)C1 (stereo not drawn)
9,> 10 µM,CCCN1CCCC(c2nc(Nc3cccc(F)c3)cc(-c3cccnc3)n2)C1 (stereo not drawn)
10,> 10 µM,CCC(=O)N1CCCC(c2nc(NC3CC3)cc(-c3cccnc3)n2)C1 (stereo not drawn)
11,> 10 µM,CCC(=O)N1CCCC(c2nc(NC3CCCCC3)cc(-c3cccnc3)n2)C1 (stereo not drawn)
12,> 10 µM,CCC(=O)N1CCCC(c2nc(NC3CCCC3)cc(-c3cccnc3)n2)C1 (stereo not drawn)
13,> 10 µM,CCC(=O)N1CCCC(c2nc(NCc3ccccc3)cc(-c3cccnc3)n2)C1 (stereo not drawn)
14,> 10 µM,CCC(=O)N1CCCC(c2nc(-c3cccnc3)cc(N3CCOCC3)n2)C1 (stereo not drawn)
15,> 10 µM,CCC(=O)N1CCCC(c2nc(NC)cc(-c3cccnc3)n2)C1 (stereo not drawn)
16,> 10 µM,CCC(=O)N1CCCC(c2nc(Nc3cccc(F)c3)cc(C3CCOCC3)n2)C1 (stereo not drawn)
17,> 10 µM,CCC(=O)N1CCCC(c2nc(Nc3cccc(F)c3)cc(C3CCCCC3)n2)C1 (stereo not drawn)
18,> 10 µM,CCC(=O)N1CCCC(c2nc(Nc3cccc(F)c3)cc(C3CCCC3)n2)C1 (stereo not drawn)
19,1 to 10 µM,CCC(=O)N1CCCC(c2nc(-c3cccnc3)cc(N(C)c3cccc(F)c3)n2)C1 (stereo not drawn)
20,> 10 µM,CCC(=O)N1CCCC(c2nc(-c3cccnc3)cc(N(c3cccc(F)c3)C(C)C)n2)C1 (stereo not drawn)
21,1 to 10 µM,COc1cncc(-c2cc(N(C)c3cccc(C)c3)nc(C3CCCN(C(C)=O)C3)n2)c1 (stereo not drawn)
22,> 10 µM,CCC(=O)N1CCCC(c2nc(Cl)cc(Oc3cccc(F)c3)n2)C1 (stereo not drawn)
23,> 10 µM,CCC(=O)N1CCCC(c2nc(Oc3cccc(F)c3)cc(-c3cccnc3)n2)C1 (stereo not drawn)

row,EC50,SMILES
1,> 10 µM,CCC(=O)N1CCCC(c2nc(Cc3cccc(F)c3)cc(-c3cccnc3)n2)C1 (stereo not drawn)
2,> 10 µM,COc1cncc(-c2cc(Cc3cccc(F)c3)nc(C3CCCN(C(C)=O)C3)n2)c1 (stereo not drawn)
3,> 10 µM,CCC(=O)N1CCCC(c2nc(Nc3cccc(F)c3)cc(-c3ncccn3)n2)C1 (stereo not drawn)
4,> 10 µM,CCC(=O)N1CCCC(c2nc(Nc3cccc(F)c3)cc(-c3cscn3)n2)C1 (stereo not drawn)
5,> 10 µM,CC(=O)N1CCCC(c2nc(Nc3cccc(F)c3)cc(-c3ncco3)n2)C1 (stereo not drawn)
6,> 10 µM,CC(=O)N1CCCC(c2nc(Nc3cccc(F)c3)cc(-c3ncc(C)o3)n2)C1 (stereo not drawn)
7,< 1 µM,CC(=O)N1C[C@H](c2nc(Nc3cncc(C)c3)cc(-c3cncnc3)n2)CC[C@@H]1C
8,1 to 10 µM,CNC(=O)N1CCCC(c2nc(Nc3cccc(F)c3)cc(-c3cccnc3)n2)C1 (stereo not drawn)
9,> 10 µM,CC(=O)N1CCOC(c2nc(Nc3cccc(F)c3)cc(-c3cccnc3)n2)C1 (stereo not drawn)
10,> 10 µM,CN1CCOC(c2nc(Nc3cccc(F)c3)cc(-c3cccnc3)n2)C1 (stereo not drawn)
11,> 10 µM,CS(=O)(=O)N1CCCC(c2nc(Nc3cccc(F)c3)cc(-c3cccnc3)n2)C1 (stereo not drawn)
12,> 10 µM,O=S(=O)(N1CCCC(c2nc(Nc3cccc(F)c3)cc(-c3cccnc3)n2)C1)C(F)(F)F (stereo not drawn)
13,> 10 µM,CC(=O)N1CCC[C@H](c2nc(Nc3cccc(F)c3)cc(-c3cccnc3)n2)C1
14,< 1 µM,CC(=O)N1CCC[C@@H](c2nc(Nc3cccc(F)c3)cc(-c3cccnc3)n2)C1
15,> 10 µM,CCC(=O)N1CCC[C@H](c2nc(Nc3cccc(F)c3)cc(-c3cccnc3)n2)C1
16,1 to 10 µM,CCC(=O)N1CCC[C@@H](c2nc(Nc3cccc(F)c3)cc(-c3cccnc3)n2)C1
17,1 to 10 µM,COc1cncc(-c2cc(Nc3cccc(Cl)c3)nc([C@H]3CCCN(C(C)=O)C3)n2)c1
18,< 1 µM,COc1cncc(-c2cc(Nc3cccc(Cl)c3)nc([C@@H]3CCCN(C(C)=O)C3)n2)c1
19,1 to 10 µM,CC(=O)N1CCCC(c2nc(Nc3cccc(F)c3)nc(-c3ccccc3)n2)C1 (stereo not drawn)
20,1 to 10 µM,CC(=O)N1CCCC(c2cc(-c3cccnc3)cc(Nc3cccc(F)c3)n2)C1 (stereo not drawn)
21,1 to 10 µM,CC(=O)N1CCCC(c2cc(Nc3cccc(F)c3)cc(-c3cccnc3)n2)C1 (stereo not drawn)
